Laboratory results taken from patent US7519519B1, “Signature projection score” (Entelos, Inc., priority 2002, dated 2009).
Like-named read-outs stand apart in the source and are kept apart here. Marks after values point to notes of the source that are not given here.

How the values were obtained:
leukocytes = tested on: leukocytes
Experimental: (§1) Control animals were dosed with vehicle only.
The Leukocyte Depletion Signature was derived by analysis of a subset of data from about 2000 in vivo rat drug treatments (using about 300 individual drugs) representing multiple tissues; the method for creation of this dataset is described in the general methods section.

[1] = tested on: Leukocyte Depletion Signature; experiment: Signature Projection Score against the Leukocyte Depletion Signature, spleen gene expression data; format: in vivo, rat; settings: maximum over treatments, normalized so highest training treatment = 100, * = p < 0.01, ** = p < 0.001
Experimental: as §1

[2] = tested on: Leukocyte Depletion Signature; experiment: Signature Projection Score against the Leukocyte Depletion Signature, bone marrow gene expression data; settings: maximum over treatments, normalized so highest training treatment = 100, * = p < 0.01, ** = p < 0.001
Description: Using only the genes in the signature, the amount and direction of gene expression changes in an experimental sample are compared (in terms of log ratio of expression signals) against a reference gene expression change (computed as the average over a characterizing set of treatments in our database). The sum over genes of the product of these two differences is computed, and normalized such that the highest score of any of the characterizing treatments when calculated in this way is 100.
After determination of the MTD and FED for a compound, each compound was dissolved in a vehicle for administration on day 1 of the study (additional daily doses were stored as frozen aliquots from this initial formulation). Each compound was administered to three individual male Sprague-Dawley rats for each of the two doses (MTD and FED) for one of four different times (0.25 day, 1 day, 3 days, and 5 days), yielding a total of up to 24 animals per compound study. Vehicle choice was based on solubility of the compound, effect of food on adsorption, and the vehicles used in the literature reports examined during the FED selection investigations, described above. Generally, the route and vehicle in which the FED was defined are used. When there was a choice of routes and vehicles, oral routes were chosen over injection routes. Many compounds, especially oncolytics, are only administrable intravenously. In such cases, the compound was administered as an intravenous formulation into the tail vein. Orally administered compounds were given dissolved in either water, 1% carboxymethycellulose (CMC) or corn oil. Intravenously and intraperitoneally administered compounds were given in 0.9% saline. Subcutaneously administered compounds were given in corn oil. Animal body weights were determined at 1 day and, where appropriate, at 4 days, before necropsy, and clinical observations were made on a daily basis. Control animals were dosed with vehicle only. Three male animals were used for each dose and time combination used for the compound treatment.
Tissue harvest and handling: After the allocated treatment time, the tissues from the animals were harvested. […] All the tissues collected were divided to provide samples for histopathological analyses, and the remainder of each tissue was then snap-frozen. […] Preparation of enriched mRNA: Punch biopsies were taken from the frozen tissues and were completely homogenized before being processed using the MagNA Pure robot. (Roche Diagnostics Corp., Indianapolis, Ind.) in combination with the MagNA Pure LC RNA Isolation kit II (Roche Diagnostics Corp). The amount of lysis buffer was adjusted to allow 1 ml per 50 mg for liver tissue, or 1 ml per 80 mg for all other tissues.

[3] = time point 5 days, average of 3 animals, * = p < 0.01

| Structure (SMILES) | Max Fold Serum Leukocyte Depletion (leukocytes; maximum over treatments) [fold] | Max Spleen Score (Signature Projection Score) [1] | Max Bone Marrow Score (Signature Projection Score) [2] | Fold Decrease in leukocytes (leukocytes; [3]) | Max Fold Serum Leukocyte Depletion (leukocytes; rat, in vivo) [fold] | Fold Decrease in leukocytes (leukocytes; rat, in vivo) |
| --- | --- | --- | --- | --- | --- | --- |
| N.N.[Cl][Pt][Cl] [CISPLATIN] | 2.01 | 25* | 7 | – | – | – |
| O=C(O)CCCc1ccc(N(CCCl)CCCl)cc1 [CHLORAMBUCIL] | 7.08 | 65* | 9 | 7.08* fold | – | – |
| CCN(CC)N=O [N-NITROSODIETHYLAMINE] | – | 0 | 7 | – | – | – |
| COc1cccc2c1C(=O)c1c(O)c3c(c(O)c1C2=O)C[C@@](O)(C(=O)CO)C[C@@H]3O[C@H]1C[C@H](N)[C@H](O)[C@H](C)O1 [DOXORUBICIN] | – | 75** | 41* | – | 4.70 | – |
| COc1cc([C@@H]2c3cc4c(cc3[C@@H](O[C@@H]3O[C@@H]5CO[C@@H](C)O[C@H]5[C@H](O)[C@H]3O)[C@H]3COC(=O)[C@H]23)OCO4)cc(OC)c1O [ETOPOSIDE] | – | 47* | 43* | – | 2.04 | – |
| N.N.O=C([O-])C1(C(=O)[O-])CCC1.[Pt+2] [CARBOPLATIN] | 0 | 8 | 2 | – | – | – |
| CO[C@@]12[C@H](COC(N)=O)C3=C(C(=O)C(C)=C(N)C3=O)N1C[C@@H]1N[C@@H]12 [MITOMYCIN C] | 3.53 | 57* | 7 | 3.53* fold | – | – |
| C[C@H]1O[C@@H](n2cc(F)c(=O)[nH]c2=O)[C@H](O)[C@@H]1O [DOXIFLURIDINE] | – | – | 56* | – | 0 | – |
| NC(=O)NO [HYDROXYUREA] | – | 15 | 13 | – | 2.92 | – |
| CN(C)c1nc(N(C)C)nc(N(C)C)n1 [ALTRETAMINE] | – | 5 | 3 | – | 0 | – |
| CC(C)(c1ccc(O)cc1)c1ccc(O)cc1 [BISPHENOL A] | – | 3 | 0 | – | 0 | – |
| Oc1c(Cl)cc(Cl)cc1Sc1cc(Cl)cc(Cl)c1O [BITHIONOL] | – | 2 | 4 | – | 0 | – |
| CN(Cc1cnc2nc(N)nc(N)c2n1)c1ccc(C(=O)N[C@@H](CCC(=O)O)C(=O)O)cc1 [METHOTREXATE] | – | 75** | 6 | – | 4.35 | 4.35* fold |
| CC/C(=C(/CC)c1ccc(O)cc1)c1ccc(O)cc1 [DIETHYLSTILBESTROL] | – | 30* | 2 | – | – | – |
| COc1c(C)c2c(c(O)c1C/C=C(\C)CCC(=O)OCCN1CCOCC1)C(=O)OC2 [MYCOPHENOLATE MOFETIL] | – | – | 9 | – | – | – |
| CCO [ETHANOL] | – | – | 2 | – | 0 | – |

| Structure (SMILES) | Max Fold Serum Leukocyte Depletion (leukocytes; maximum over treatments) [fold] | Max Spleen Score (Signature Projection Score) [1] | Max Bone Marrow Score (Signature Projection Score) [2] | Fold Decrease in leukocytes (leukocytes; [3]) | Max Fold Serum Leukocyte Depletion (leukocytes; rat, in vivo) [fold] | Fold Decrease in leukocytes (leukocytes; rat, in vivo) |
| --- | --- | --- | --- | --- | --- | --- |
| Cn1cnc([N+](=O)[O-])c1Sc1ncnc2nc[nH]c12 [AZATHIOPRINE] | – | 19 | 11 | – | 0 | – |
| ClC(Cl)(Cl)Cl [CARBON TETRACHLORIDE] | 0 | – | 2 | – | – | – |
| CS(=O)(=O)OCCCCOS(C)(=O)=O [BUSULFAN] | – | 32* | 19 | – | 0 | – |
| S=C=Nc1cccc2ccccc12 [1-NAPHTHYL ISOTHIOCYANATE] | 0 | – | 0 | – | – | – |
| CC[C@]1(O)C[C@@H]2CN(CCc3c([nH]c4ccccc34)[C@@](C(=O)OC)(c3cc4c(cc3OC)N(C)[C@H]3[C@@](O)(C(=O)OC)[C@H](OC(C)=O)[C@]5(CC)C=CCN6CC[C@]43[C@@H]65)C2)C1 [VINBLASTINE] | – | – | 11 | – | – | – |
| CC[C@]1(O)C[C@H]2CN(CCc3c([nH]c4ccccc34)[C@@](C(=O)OC)(c3cc4c(cc3OC)N(C=O)[C@H]3[C@@](O)(C(=O)OC)[C@H](OC(C)=O)[C@]5(CC)C=CCN6CC[C@]43[C@@H]65)C2)C1 [VINCRISTINE] | – | – | 5 | – | – | – |
| O=C1[O][Pt]2([NH][C@@H]3CCCC[C@H]3[NH]2)[O]C1=O [OXALIPLATIN] | 2.18 | – | 14 | – | – | – |
| CCC1=C[C@@H]2CN(C1)Cc1c([nH]c3ccccc13)[C@@](C(=O)OC)(c1cc3c(cc1OC)N(C)[C@H]1[C@@](O)(C(=O)OC)[C@H](OC(C)=O)[C@]4(CC)C=CCN5CC[C@]31[C@@H]54)C2 [VINORELBINE] | – | – | 44* | – | 1.93 | – |
| CN(C)C=O [N,N-DIMETHYLFORMAMIDE] | – | 3 | 0 | – | – | – |
| Nc1nc2nc[nH]c2c(=S)[nH]1 [THIOGUANINE] | – | 100** | 24* | – | 3.63 | 3.63* fold |
| Cc1oncc1C(=O)Nc1ccc(C(F)(F)F)cc1 [LEFLUNOMIDE] | – | 34* | 7 | – | 2.89 | – |
| O=NN(CCCl)C(=O)NCCCl [CARMUSTINE] | 4.49 | 31* | 39* | 4.49* fold | – | – |
| O=P1(NCCCl)OCCCN1CCCl (stereo not drawn) [IFOSFAMIDE] | – | 11 | 79** | – | – | – |
| Nc1ccn([C@@H]2O[C@H](CO)[C@@H](O)[C@@H]2O)c(=O)n1 [CYTARABINE] | – | 15 | 2 | – | 2.85 | – |
| O=NN(CCCl)C(=O)NC1CCCCC1 [LOMUSTINE] | 0 | 23* | 3 | – | – | – |
| COc1cccc2c1C(=O)c1c(O)c3c(c(O)c1C2=O)C[C@@](O)(C(C)=O)C[C@@H]3O[C@H]1C[C@H](N)[C@H](O)[C@H](C)O1 [DAUNORUBICIN] | 2.77 | – | 54* | – | – | – |
